In the supplement of paper PMC10307832:

Experiments:
Test in all cases: relative viability (nuclei count vs DMSO), 5 days (fraction); higher = more cells survive
201T = test system: 201T
Procedure, shortened: (§1)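 The day after seeding in 1536-well plates, lung cancer cell lines were treated by pin tool with a single drug, or with a fixed anchor-drug dose together with five library-drug doses (not always all listed) in √10 steps. After 5 days, a combined fix-and-stain solution (final 0.05% Triton X-100, 1% formaldehyde, 1 ug/ml Hoechst) was added. Nuclei counted on 4× images gave relative viability as treated counts over vehicle counts, reported as the median of duplicate plates.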

NCI-H727 = test system: NCI-H727
Procedure, shortened: as §1

LK-2 = test system: LK-2
Procedure, shortened: as §1

EKVX = test system: EKVX
Procedure, shortened: as §1

HARA = test system: HARA
Procedure, shortened: as §1

BEN = test system: BEN
Procedure, shortened: as §1

NCI-H1437 = test system: NCI-H1437
Procedure, shortened: as §1

PC-14 = test system: PC-14
Procedure, shortened: as §1

NCI-H1666 = test system: NCI-H1666
Procedure, shortened: as §1

NCI-H2023 = test system: NCI-H2023
Procedure, shortened: as §1

ABC-1 = test system: ABC-1
Procedure, shortened: as §1

Clc1ccc(Nc2nnc(Cc3ccncc3)c3ccccc23)cc1 [Vatalanib] + C[C@]1(O)C[C@@H](c2nc(-c3ccc4ccc(-c5ccccc5)nc4c3)c3c(N)nccn32)C1 [Linsitinib] (partner 1 µM) was tested, and the relative viability (201T; first compound 0.4 µM) was 1.02, the relative viability (201T; first compound 1.265 µM) was 0.985 and the relative viability (201T; first compound 4 µM) was 0.949. The relative viability (NCI-H727; first compound 0.04 µM) was 0.3, the relative viability (NCI-H727; first compound 0.1265 µM) was 0.184 and the relative viability (NCI-H727; first compound 0.4 µM) was 0.358. For the same molecule, the relative viability (NCI-H727; first compound 1.265 µM) was 0.236, the relative viability (NCI-H727; first compound 4 µM) was 0.285 and the relative viability (LK-2; first compound 0.04 µM) was 0.712. It also gave a relative viability (LK-2; first compound 0.1265 µM) of 0.423, a relative viability (LK-2; first compound 0.4 µM) of 0.541 and a relative viability (LK-2; first compound 1.265 µM) of 0.435. The relative viability (LK-2; first compound 4 µM) was 0.704, the relative viability (EKVX; first compound 0.04 µM) was 1.03 and the relative viability (EKVX; first compound 0.1265 µM) was 0.89. For the same molecule, the relative viability (EKVX; first compound 0.4 µM) was 0.941, the relative viability (EKVX; first compound 1.265 µM) was 0.814 and the relative viability (EKVX; first compound 4 µM) was 0.776. It also gave a relative viability (HARA; first compound 0.04 µM) of 1.02, a relative viability (HARA; first compound 0.1265 µM) of 0.896 and a relative viability (HARA; first compound 0.4 µM) of 1. The relative viability (HARA; first compound 1.265 µM) was 0.84, the relative viability (HARA; first compound 4 µM) was 0.838 and the relative viability (BEN; first compound 0.04 µM) was 0.992. The relative viability (BEN; first compound 0.1265 µM) was 0.785, the relative viability (BEN; first compound 0.4 µM) was 0.99 and the relative viability (BEN; first compound 1.265 µM) was 0.943. The relative viability (BEN; first compound 4 µM) was 0.97, the relative viability (NCI-H1437; first compound 0.04 µM) was 1.09 and the relative viability (NCI-H1437; first compound 0.1265 µM) was 1.03. The relative viability (NCI-H1437; first compound 0.4 µM) was 1.14, the relative viability (NCI-H1437; first compound 1.265 µM) was 0.956 and the relative viability (NCI-H1437; first compound 4 µM) was 1.08. For the same molecule, the relative viability (PC-14; first compound 0.04 µM) was 0.955, the relative viability (PC-14; first compound 0.1265 µM) was 0.905 and the relative viability (PC-14; first compound 0.4 µM) was 1.03. It also gave a relative viability (PC-14; first compound 1.265 µM) of 0.955, a relative viability (PC-14; first compound 4 µM) of 0.871 and a relative viability (NCI-H1666; first compound 0.04 µM) of 0.805. For the same molecule, the relative viability (NCI-H1666; first compound 0.1265 µM) was 0.891, the relative viability (NCI-H1666; first compound 0.4 µM) was 0.923 and the relative viability (NCI-H1666; first compound 1.265 µM) was 0.779. It also gave a relative viability (NCI-H1666; first compound 4 µM) of 0.708, a relative viability (NCI-H2023; first compound 0.04 µM) of 0.726 and a relative viability (NCI-H2023; first compound 0.1265 µM) of 0.735. The relative viability (NCI-H2023; first compound 0.4 µM) was 0.815, the relative viability (NCI-H2023; first compound 1.265 µM) was 0.571 and the relative viability (NCI-H2023; first compound 4 µM) was 0.705. For the same molecule, the relative viability (ABC-1; first compound 0.04 µM) was 0.89, the relative viability (ABC-1; first compound 0.1265 µM) was 0.767 and the relative viability (ABC-1; first compound 0.4 µM) was 1.05. The relative viability (ABC-1; first compound 1.265 µM) was 0.659 and the relative viability (ABC-1; first compound 4 µM) was 0.981.
